3 molecules from article PMC4417150, “Selective inhibition of miR-21 by phage display screened peptide” (Nucleic Acids Research, 2015) can be followed below.

Peptide text beside a SMILES is read from it.

This data set has as its system MCF-7 cells. The data set can be described thus: Quantitative uptake of FAM-conjugated peptide (flow cytometry). In kind it is in vitro ADME. The conditions noted are these: FAM-conjugated peptides 1, 5, 10 µM; MCF-7, serum free media, 6 h, 37°C; FACS; duplicate. The method, then:
Carboxyfluorescein (FAM)-conjugated peptide was added onto MCF-7 cells with ∼80% confluence in serum free media. Cells were then incubated at 37°C humidified incubator (5% CO2) for 6 h. Cells were washed twice with ice cold PBS containing 1mg/ml heparin, followed by one wash with trypan blue and two washes with ice cold PBS. Cells were trypsinised, followed by centrifugation at 700 g for 5 min at 4°C. Cell pellet was resuspended in ice cold PBS and FACS analysis was done in BD Accuri instrument. 10000 counts per sample was analyzed using BD Accuri C6 software.
As the peptide contains three proline residues, we reasoned that the peptide may have cell penetrating properties. To check the cell penetrating property, we FAM conjugated the peptides and monitored their uptake by flow cytometry.
On to LPPAPWNWAHVL [scrambled mutant], for which the “cell penetrating potential (uptake)” value was “clearly indicated cell penetrating potential”. Next, PVWAHLNPPWLA [reverse mutant]: “clearly indicated cell penetrating potential”; `CC(C)C[C@H](NC(=O)[C@H](C)N)C(=O)N[C@@H](Cc1c[nH]c2ccccc12)C(=O)N1CCC[C@H]1C(=O)N1CCC[C@H]1C(=O)N[C@@H](CC(N)=O)C(=O)N[C@@H](CC(C)C)C(=O)N[C@@H](Cc1c[nH]cn1)C(=O)N[C@@H](C)C(=O)N[C@@H](Cc1c[nH]c2ccccc12)C(=O)N[C@H](C(=O)N1CCC[C@H]1C(=O)O)C(C)C` [wild-type peptide] (H-ALWPPNLHAWVP-OH): “clearly indicated cell penetrating potential”.
